Experimental data: patent US6153768A, “Benzopyran derivatives” (C & C Research Laboratories, priority 1996, dated 2000)

Legend:
estrogen receptor = details: literature, in words; cited from earlier work
MCF-7 cells = test: Cell growth inhibiting activity (MTT, 0.1 nM estradiol, 7 days); format: cell-based; details: Homo sapiens, MCF7, 168 h, MCF-7, 0.1 nM estradiol
Experimental: In this experiment, the cell growth inhibiting activity was determined by using the compounds of Examples 6, 7, 12 and 46 as the test compound and the known anti-estrogenic compound ZM189154 having the following structure (see, EP0124369 B1) as the control compound, according to the method described hereinafter. [drawing 72]
One day before drug administration, incubated MCF-7 cells were plated in 96-well plate in the concentration of 5×10^3 cells per well. After the 96-well plate was incubated for one day, 0.1 nM of estradiol and the test compound in the given concentration were added to each well. The plate was incubated for 7 days at 37° C. and then MTT solution (Sigma) was added to each well in the amount of 15 μl and allowed to react for 2 hours at 37° C. After the reaction is completed, the solubilizing/stopping solution (constitution: SDS, acetic acid, N,N-dimethylformamide) was added to each well in the amount of 100 μl. Then, the absorption for each well at 570 nm was measured by means of a plate reader. IC50 value for inhibiting cell growth of 50% was calculated from the results as measured and described in the following Table 1.

[1] = system: increase of uterine weight by estradiol in ovariectomized mice; test: Anti-estrogenic activity, inhibition of uterine weight increase, subcutaneous administration; format: in vivo, mice (ICR); details: s.c.; for Inhibition (%) of increase of uterine weight: 30 μg/mouse, 3 days; for inhibition of increase of uterine weight compared to ZM189154: in words
Experimental: Anti-estrogenic activity of the test compound by subcutaneous administration was determined according to the method described hereinafter. In this experiment, the compounds of Examples 6, 7, 12 and 46 were used as the test compound and the known anti-estrogenic compound ZM189154 was used as the control compound as in Experiment 1.
In this experiment, the test compound or the control compound was dissolved in peanut oil (Sigma) and injected subcutaneously for 3 days, once a day. After 24 hours from the last injection, the test animal was sacrificed and uterus was removed and weighed.

[2] = system: increase of uterine weight by estradiol in ovariectomized mice; test: Anti-estrogenic activity, inhibition of uterine weight increase, oral administration; format: in vivo, mice (ICR); details: 10 mg/kg, p.o., 3 days
Experimental: Oral anti-estrogenic activity of the test compound was determined according to the method described hereinafter. In this experiment, the compound of Example 7 was used as the test compound and the known anti-estrogenic compound ZM189154 was used as the control compound as in Experiment 2.
In this experiment, the test compound or the control compound was suspended in 5% arabic gum solution and orally administered for 3 days, once a day. After 24 hours from the last administration, the test animal was sacrificed and uterus was removed and weighed.

mouse femur = test: Effect on bone mineral density of mouse femur; format: in vivo, BALB/c nude mouse (female); details: for whole BMD / proximal BMD / distal BMD: mean ± SE, s.c. once a week, 6 weeks; for whole BMD: control 35.63 ± 0.97; for proximal BMD: control 35.95 ± 1.50; for distal BMD: control 37.80 ± 1.75
Experimental: The effect of the compound of the present invention on bone mineral density of mouse femur was determined according to the method described hereinafter. In this experiment, the compounds of Example 7 was used as the test compound and the known anti-estrogenic compound ZM189154 was used as the control compound as in Experiment 2.
MCF-7 cells (ATCC) as human breast cancer cell were transplanted subcutaneously into BALB/c nude mouse (female, 6 weeks) and then estradiol was percutaneously injected twice a week in an amount of 0.01 mg/mouse, for 3 weeks. Thereafter, estradiol was administered once a week in the same amount and the test compound or the control compound dissolved in 10% ethanol-90% peanut oil was administered. The control group received only vehicle. The test or control compound was administered subcutaneously in an amount of […], once a week. After the administration of the test compound for 6 weeks, left femur was excised and soft tissue was removed therefrom. Then the bone mineral density (BMD) was measured in a SPA mode by means of dual energy X-ray absorptiometry DCS-600 (Aloka). For interpretation, femur was divided into ten in the direction of long axis and the mean […] of 3, 4 and 3 fragments from proximal position were calculated. Each of the fragments was represented as proximal, middle or distal, respectively.

Compound | IC50 (MCF-7 cells) | Inhibition (%) of increase of uterine weight [1] | inhibition of increase of uterine weight compared to ZM189154 [1] | other results
CC/C(=C(\c1ccccc1)c1ccc(OCCN(C)C)cc1)c1ccccc1 [Tamoxifen] |  |  |  | estrogenic activity (agonistic effect) (estrogen receptor): exhibits estrogenic activity in some organs
C[C@@]1(c2ccc(O)cc2)COc2cc(O)ccc2[C@@H]1CCCCCCCCC[S+]([O-])CCN1CCCCC1 (mixture of isomers) [Example 46, (3RS,4RS)-7-hydroxy-3-(4-hydroxyphenyl)-3-methyl-4-[9-((2-piperidinoethyl)sulfinyl)nonyl]-2,3-dihydro-4H-benzopyran] | 33 nM | 16.7% | rather superior to that of ZM189154 | 
C[C@@]1(c2ccc(O)cc2)COc2cc(O)ccc2[C@@H]1CCCCCCCCCSCCCC(F)(F)C(F)(F)F (racemic) [Example 6, (3RS,4RS)-7-hydroxy-3-(4-hydroxyphenyl)-3-methyl-4-[9-(4,4,5,5,5-pentafluoropentylthio)nonyl]-2,3-dihydro-4H-benzopyran] | 277 nM | 83.1% | rather superior to that of ZM189154 | 
CC1(c2ccc(O)cc2)CCc2cc(O)ccc2C1CCCCCCCCC[S+]([O-])CCCC(F)(F)C(F)(F)F (stereo not shown) [ZM189154] | 77 nM | 73.8% |  | Inhibition (%) of increase of uterine weight [2]: 41.7%; whole BMD (mouse femur): 34.57 ± 1.40 mg/cm^2; proximal BMD (mouse femur): 34.19 ± 2.19 mg/cm^2; distal BMD (mouse femur): 32.80 ± 1.30 mg/cm^2; decrease of BMD at distal femur (mouse femur; vs control): 13.3%; decrease of BMD at proximal femur (mouse femur; vs control): 4.9%; decrease of BMD at whole femur (mouse femur; vs control): 3.0%
C[C@@]1(c2ccc(O)cc2)COc2cc(O)ccc2[C@@H]1CCCCCCCCC[S+]([O-])CCCC(F)(F)C(F)(F)F (mixture of isomers) [Example 7, (3RS,4RS)-7-hydroxy-3-(4-hydroxyphenyl)-3-methyl-4-[9-(4,4,5,5,5-pentafluoropentylsulfinyl)nonyl]-2,3-dihydro-4H-benzopyran] | 54.8 nM | 87.0% | rather superior to that of ZM189154 | Inhibition (%) of increase of uterine weight [2]: 68.1%; whole BMD (mouse femur): 37.23 ± 1.41 mg/cm^2; proximal BMD (mouse femur): 35.05 ± 2.05 mg/cm^2; distal BMD (mouse femur): 36.29 ± 1.46 mg/cm^2
C[C@]12CC[C@@H]3c4ccc(O)cc4C[C@@H](CCCCCCCCC[S+]([O-])CCCC(F)(F)C(F)(F)F)[C@H]3[C@@H]1CC[C@@H]2O (stereo partly shown) |  |  |  | estrogenic activity (agonistic effect) (estrogen receptor): without agonistic effect
C[C@@]1(c2ccc(O)cc2)COc2cc(O)ccc2[C@@H]1CCCCCCCCSCCCC(F)(F)C(F)(F)F (racemic) [Example 12, (3RS,4RS)-7-hydroxy-3-(4-hydroxyphenyl)-3-methyl-4-[8-(4,4,5,5,5-pentafluoropentylthio)octyl]-2,3-dihydro-4H-benzopyran] | 524 nM | 74.8% | rather superior to that of ZM189154 | 
CCCCN(C)C(=O)CCCCCCCCCC[C@@H]1Cc2cc(O)ccc2[C@H]2CC[C@]3(C)[C@@H](O)CC[C@H]3[C@H]12 [7 α--(CH2)10 CONMeBu derivative] |  |  |  | anti-estrogenic activity (estrogen receptor): exhibit anti-estrogenic activity
